According to US11685746B2, “Heteroaryl compounds for treating Huntington's disease” (PTC THERAPEUTICS, INC., priority 2018, dated 2023):

Tested on: Endogenous Huntingtin Protein
Test: Endogenous Huntingtin Protein Assay (MSD plates, MW1 or MAB2166 capture antibody)
Type: cell-based
Settings: Table 1
Procedure, shortened: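 Sandwich MSD immunoassay: plates were coated overnight at 4° C with MW1 (expanded polyQ) or MAB2166 capture antibody at 1 μg/mL, then blocked with 5% BSA. Samples were bound overnight at 4° C, followed by rabbit mAb #5656S and SULFO-TAG anti-rabbit detection, each at 0.25 μg/mL for 1 h at room temperature. Signal was read by electrochemiluminescence.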

| SMILES | IC50 [nM] |
| --- | --- |
| CN(c1nc2sc(-c3ncc(-c4cn[nH]c4)cn3)nc2s1)C1CC(C)(C)NC(C)(C)C1 [Compound 162, N-methyl-5-[5-(1H-pyrazol-4-yl)pyrimidin-2-yl]-N-(2,2,6,6-tetramethylpiperidin-4-yl)[1,3]thiazolo[5,4-d][1,3]thiazol-2-amine] | ≤ 100 |
| CC(C)(C)NC1CCN(c2nc3sc(-c4ncc(-c5cn[nH]c5)cn4)nc3s2)C1 (stereo not shown) [Compound 150, N-tert-butyl-1-{5-[5-(1H-pyrazol-4-yl)pyrimidin-2-yl][1,3]thiazolo[5,4-d][1,3]thiazol-2-yl}pyrrolidin-3-amine] | 1000 to 3000 |
| Cn1cc2cc(-c3nc4sc(N5CCNCC5)nc4s3)cc(C#N)c2n1 [Compound 7, 2-methyl-5-[5-(piperazin-1-yl)[1,3]thiazolo[5,4-d][1,3]thiazol-2-yl]-2H-indazole-7-carbonitrile] | 500 to 1000 |
| Cn1cc2cc(-c3nc4sc(N5CC6(CCNCC6)C5)nc4s3)cc(F)c2n1 [Compound 176, 5-[5-(2,7-diazaspiro[3.5]nonan-2-yl)[1,3]thiazolo[5,4-d][1,3]thiazol-2-yl]-7-fluoro-2-methyl-2H-indazole] | 100 to 500 |
| CN(c1nc2sc(-c3ccc(-c4cn[nH]c4)c4cn[nH]c34)nc2s1)[C@H]1C[C@]2(C)CC[C@](C)(C1)N2 [Compound 110, N-[(1R,3s,5S)-1,5-dimethyl-8-azabicyclo[3.2.1]octan-3-yl]-N-methyl-5-[4-(1H-pyrazol-4-yl)-1H-indazol-7-yl][1,3]thiazolo[5,4-d][1,3]thiazol-2-amine] | ≤ 100 |
| Cc1ncc(-c2cnc(-c3nc4sc(N(C)C5CCNCC5)nc4s3)c(O)c2)s1 [Compound 222, 2-{5-[methyl(piperidin-4-yl)amino][1,3]thiazolo[5,4-d][1,3]thiazol-2-yl}-5-(2-methyl-1,3-thiazol-5-yl)pyridin-3-ol] | ≤ 100 |
| CC1(C)CC(Oc2nc3sc(-c4ncc(-c5cn[nH]c5)c5cc[nH]c45)nc3s2)CCN1 (stereo not shown) [Compound 77, 7-{5-[(2,2-dimethylpiperidin-4-yl)oxy][1,3]thiazolo[5,4-d][1,3]thiazol-2-yl}-4-(1H-pyrazol-4-yl)-1H-pyrrolo[2,3-c]pyridine] | ≤ 100 |
| CC1CC(N(C)c2nc3sc(-c4ncc(-c5cn[nH]c5)cc4O)nc3s2)CCN1C (stereo not shown) [Compound 182, 2-{5-[(1,2-dimethylpiperidin-4-yl)(methyl)amino][1,3]thiazolo[5,4-d][1,3]thiazol-2-yl}-5-(1H-pyrazol-4-yl)pyridin-3-ol] | ≤ 100 |
| C[C@H]1C[C@H](N(C)c2nc3sc(-c4cnc(-n5ccnc5)cn4)nc3s2)CCN1 [Compound 66, 5-[5-(1H-imidazol-1-yl)pyrazin-2-yl]-N-methyl-N-[(2S,4R)-2-methylpiperidin-4-yl][1,3]thiazolo[5,4-d][1,3]thiazol-2-amine] | ≤ 100 |
| CN(c1nc2sc(-c3cnc(-c4cn[nH]c4)cn3)nc2s1)[C@H]1C[C@]2(C)CC[C@](C)(C1)N2C [Compound 114, N-methyl-5-[5-(1H-pyrazol-4-yl)pyrazin-2-yl]-N-[(1R,3s,5S)-1,5,8-trimethyl-8-azabicyclo[3.2.1]octan-3-yl][1,3]thiazolo[5,4-d][1,3]thiazol-2-amine] | ≤ 100 |
| CN(c1nc2sc(-c3ncc(-c4cn[nH]c4Cl)cc3O)nc2s1)C1CCNCC1 [Compound 220, 5-(5-chloro-1H-pyrazol-4-yl)-2-{5-[methyl(piperidin-4-yl)amino][1,3]thiazolo[5,4-d][1,3]thiazol-2-yl}pyridin-3-ol] | ≤ 100 |
| CN(c1nc2sc(-c3ncc(-c4cn[nH]c4F)cc3O)nc2s1)C1CCNCC1 [Compound 53, 5-(5-fluoro-1H-pyrazol-4-yl)-2-{5-[methyl(piperidin-4-yl)amino][1,3]thiazolo[5,4-d][1,3]thiazol-2-yl}pyridin-3-ol] | ≤ 100 |
| CN(c1nc2sc(-n3ccc(-n4cc(F)cn4)cc3=O)nc2s1)[C@H]1C[C@]2(C)CC[C@](C)(C1)N2 [Compound 148, 1-(5-{[(1R,3s,5S)-1,5-dimethyl-8-azabicyclo[3.2.1]octan-3-yl](methyl)amino}[1,3]thiazolo[5,4-d][1,3]thiazol-2-yl)-4-(4-fluoro-1H-pyrazol-1-yl)pyridin-2(1H)-one] | ≤ 100 |
| Cc1cnn(-c2cnc(-c3nc4sc(N(C)[C@@H]5C[C@H]6CC[C@@H](C5)N6)nc4s3)c(O)c2)c1 [Compound 190, 2-(5-{[(1R,3s,5S)-8-azabicyclo[3.2.1]octan-3-yl](methyl)amino}[1,3]thiazolo[5,4-d][1,3]thiazol-2-yl)-5-(4-methyl-1H-pyrazol-1-yl)pyridin-3-ol] | ≤ 100 |
| CC(C)(C)NC1CCN(c2nc3sc(-n4ccc(-c5cn[nH]c5)cc4=O)nc3s2)C1 (stereo not shown) [Compound 151, 1-{5-[3-(tert-butylamino)pyrrolidin-1-yl][1,3]thiazolo[5,4-d][1,3]thiazol-2-yl}-4-(1H-pyrazol-4-yl)pyridin-2(1H)-one] | 100 to 500 |
| CN(c1nc2sc(-c3cnc(-c4cn[nH]c4)cn3)nc2s1)[C@@H]1C[C@H]2CC[C@@H](C1)N2 [Compound 164, N-[(1R,3s,5S)-8-azabicyclo[3.2.1]octan-3-yl]-N-methyl-5-[5-(1H-pyrazol-4-yl)pyrazin-2-yl][1,3]thiazolo[5,4-d][1,3]thiazol-2-amine] | ≤ 100 |

| SMILES | IC50 [nM] |
| --- | --- |
| [2H]C([2H])([2H])n1cc(-c2ccc(-c3nc4sc(N(C)C5CCN(C)CC5)nc4s3)c(O)c2)cn1 [Compound 58, 2-{5-[methyl(1-methylpiperidin-4-yl)amino][1,3]thiazolo[5,4-d][1,3]thiazol-2-yl}-5-[1-(^2H3)methyl-1H-pyrazol-4-yl]phenol] | ≤ 100 |
| CN(c1nc2sc(-c3ccc(-c4cn[nH]c4F)cc3O)nc2s1)C1CC(C)(C)NC(C)(C)C1 [Compound 43, 5-(5-fluoro-1H-pyrazol-4-yl)-2-{5-[methyl(2,2,6,6-tetramethylpiperidin-4-yl)amino][1,3]thiazolo[5,4-d][1,3]thiazol-2-yl}phenol] | ≤ 100 |
| CN(c1nc2sc(-c3ncc(Br)n4ccnc34)nc2s1)C1CCNCC1 [Compound 117, 5-(5-bromoimidazo[1,2-a]pyrazin-8-yl)-N-methyl-N-(piperidin-4-yl)[1,3]thiazolo[5,4-d][1,3]thiazol-2-amine] | 1000 to 3000 |
| CN(c1nc2sc(-c3cnc(-c4ccn(C)c(=O)c4)cn3)nc2s1)[C@H]1C[C@]2(C)CC[C@](C)(C1)N2 [Compound 92, 4-[5-(5-{[(1R,3s,5S)-1,5-dimethyl-8-azabicyclo[3.2.1]octan-3-yl](methyl)amino}[1,3]thiazolo[5,4-d][1,3]thiazol-2-yl)pyrazin-2-yl]-1-methylpyridin-2(1H)-one] | ≤ 100 |
| CN(c1nc2sc(-c3ncc(-n4cc(F)cn4)cc3O)nc2s1)[C@@H]1C[C@H]2CC[C@@H](C1)N2 [Compound 193, 2-(5-{[(1R,3s,5S)-8-azabicyclo[3.2.1]octan-3-yl](methyl)amino}[1,3]thiazolo[5,4-d][1,3]thiazol-2-yl)-5-(4-fluoro-1H-pyrazol-1-yl)pyridin-3-ol] | ≤ 100 |
| Cn1ncc(-c2ccc(-c3nc4sc(OC5CC(C)(C)NC(C)(C)C5)nc4s3)c(O)c2)c1F [Compound 45, 5-(5-fluoro-1-methyl-1H-pyrazol-4-yl)-2-{5-[(2,2,6,6-tetramethylpiperidin-4-yl)oxy][1,3]thiazolo[5,4-d][1,3]thiazol-2-yl}phenol] | ≤ 100 |
| CN(c1nn2c(Cl)c(-c3ccc(-c4cn[nH]c4)cc3O)nc2s1)C1CC(C)(C)NC(C)(C)C1 [Compound 9, 2-{5-chloro-2-[methyl(2,2,6,6-tetramethylpiperidin-4-yl)amino]imidazo[2,1-b][1,3,4]thiadiazol-6-yl}-5-(1H-pyrazol-4-yl)phenol] | 100 to 500 |
| CC1CC(N(C)c2nc3sc(-c4ncc(Br)c5cc[nH]c45)nc3s2)CCN1C (stereo not shown) [Compound 124, 5-(4-bromo-1H-pyrrolo[2,3-c]pyridin-7-yl)-N-(1,2-dimethylpiperidin-4-yl)-N-methyl[1,3]thiazolo[5,4-d][1,3]thiazol-2-amine] | 100 to 500 |
| CN(c1nc2sc(-c3ncc(-c4cn[nH]c4)c4cc[nH]c34)nc2s1)C1CCNCC1 [Compound 139, N-methyl-N-(piperidin-4-yl)-5-[4-(1H-pyrazol-4-yl)-1H-pyrrolo[2,3-c]pyridin-7-yl][1,3]thiazolo[5,4-d][1,3]thiazol-2-amine] | ≤ 100 |
| C[C@H]1C[C@H](Oc2nc3sc(-c4ncc(-c5cn[nH]c5)c5cc[nH]c45)nc3s2)CCN1C [Compound 84, 7-(5-{[(2S,4R)-1,2-dimethylpiperidin-4-yl]oxy}[1,3]thiazolo[5,4-d][1,3]thiazol-2-yl)-4-(1H-pyrazol-4-yl)-1H-pyrrolo[2,3-c]pyridine] | ≤ 100 |
| COc1cc(-c2cn[nH]c2)ccc1-c1nc2sc(N(C)C3CCNCC3)nc2s1 [Compound 200, 5-[2-methoxy-4-(1H-pyrazol-4-yl)phenyl]-N-methyl-N-(piperidin-4-yl)[1,3]thiazolo[5,4-d][1,3]thiazol-2-amine] | 1000 to 3000 |
| CC1CC(N(C)c2nc3sc(-c4cnc(-c5cn[nH]c5)nc4)nc3s2)CCN1C (stereo not shown) [Compound 130, N-(1,2-dimethylpiperidin-4-yl)-N-methyl-5-[2-(1H-pyrazol-4-yl)pyrimidin-5-yl][1,3]thiazolo[5,4-d][1,3]thiazol-2-amine] | 1000 to 3000 |
| CC(C)N1CCC(N(C)c2nc3sc(-c4ncc(-c5cn[nH]c5)c5cc[nH]c45)nc3s2)CC1 [Compound 121, N-methyl-N-[1-(propan-2-yl)piperidin-4-yl]-5-[4-(1H-pyrazol-4-yl)-1H-pyrrolo[2,3-c]pyridin-7-yl][1,3]thiazolo[5,4-d][1,3]thiazol-2-amine] | ≤ 100 |
| CN(c1nc2sc(-c3cnc(-c4cn[nH]c4)cn3)nc2s1)C1CC(C)(C)NC(C)(C)C1 [Compound 163, N-methyl-5-[5-(1H-pyrazol-4-yl)pyrazin-2-yl]-N-(2,2,6,6-tetramethylpiperidin-4-yl)[1,3]thiazolo[5,4-d][1,3]thiazol-2-amine] | ≤ 100 |
| Oc1cc(-c2cn[nH]c2)ccc1-c1nc2sc(C3CCNCC3)nc2s1 [Compound 208, 2-[5-(piperidin-4-yl)[1,3]thiazolo[5,4-d][1,3]thiazol-2-yl]-5-(1H-pyrazol-4-yl)phenol] | 1000 to 3000 |
